Test results from patent US9642369B2 (dated 2017).

Row | melting point [°C] | SMILES
1 | 34 to 36 | CCOP(=O)(CCC[N+](C)(C)CCCNS(=O)(=O)c1cccc2c(N(C)C)cccc12)OCC.[Br-]
2 | 122 to 124 | CN(C)CCCNS(=O)(=O)c1cccc2c(N(C)C)cccc12 (hydrate or solvate)
